Key:
[1] = cited from earlier work
glioma cells = settings: cited from earlier work
one or more cancers = settings: cyclophosphamide only
Description: One or more patients are identified who have one or more cancers selected from lung carcinoma, prostate cancer, gliaoblastoma multiform, hormone refractory prostate cancer, solid tumor malignancies such as colon carcinoma, non-small cell lung cancer (NSCLC), anaplastic astrocytoma, bladder carcinoma, sarcoma, ovarian carcinoma, rectal hemangiopericytoma, pancreatic carcinoma, advanced cancer, cancer of large bowel, stomach, pancreas, ovaries, melanoma pancreatic cancer, colon cancer, and bladder cancer.
The one or more patients are administered a formulation comprising cyclophosphamide only. […] On the day of the next administration and prior to the administration, as assessment of the outcome of treatment until that point is conducted and compared to all previous assessments.
Patients are then administered a combination of cyclophosphamide and quercetin and SPB. […] An assessment of the outcome of treatment is periodically made.

Structure (SMILES) | water solubility [1] | angiogenesis in glioma cells (glioma cells) | response of the cancers following the initial response period (one or more cancers)
O=c1c(O)c(-c2ccc(O)c(O)c2)oc2cc(O)cc(O)c12 [Quercetin, quercetin] | not water soluble | suppression of angiogenesis | 
O=P1(N(CCCl)CCCl)NCCCO1 (stereo not drawn) [cyclophosphamide] |  |  | become resistant

From patent publication US11890292B2, “Compositions, methods, systems and/or kits for preventing and/or treating neoplasms” (Research Cancer Institute of America, priority 2017, dated 2024)
